Read-outs that look alike come from different tables or passages of the source.
Legend:
Experiment in all cases: biochemical
Parameters in all cases: KINOMEscan scanMAX competition binding, DNA-tagged kinases, qPCR read-out, percent control at 300 nM
MRCKA = target: T1, MRCKA (Homo sapiens, UniProt Q5VT25)
T1 construct: gene CDC42BPA

QSK = target: T2, QSK (Homo sapiens, UniProt Q9Y2K2)
T2 construct: gene SIK3

NEK9 = NEK9 (Homo sapiens, UniProt Q8TD19)
AMPK-alpha2 = target: T3, AMPK-alpha2 (Homo sapiens, UniProt P54646)
T3 construct: gene PRKAA2

FLT3(ITD) = FLT3(ITD) (Homo sapiens, UniProt P36888, ITD)
SGK3 = SGK3 (Homo sapiens, UniProt Q96BR1)
MYLK = MYLK (Homo sapiens, UniProt Q15746)
PCTK3 = target: T4, PCTK3 (Homo sapiens, UniProt Q07002)
T4 construct: gene CDK18

KIT(L576P) = KIT(L576P) (Homo sapiens, UniProt P10721, L576P)
CAMKK2 = CAMKK2 (Homo sapiens, UniProt Q96RR4)
LIMK2 = LIMK2 (Homo sapiens, UniProt P53671)
TSSK1B = TSSK1B (Homo sapiens, UniProt Q9BXA7)
PAK4 = PAK4 (Homo sapiens, UniProt O96013)
PAK3 = PAK3 (Homo sapiens, UniProt O75914)
JNK2 = target: T5, JNK2 (Homo sapiens, UniProt P45984)
T5 construct: gene MAPK9

PIK3CD = PIK3CD (Homo sapiens, UniProt O00329)
FLT3(D835H) = FLT3(D835H) (Homo sapiens, UniProt P36888, D835H)
MST4 = target: T6, MST4 (Homo sapiens, UniProt Q9P289)
T6 construct: gene STK26

MST2 = target: T7, MST2 (Homo sapiens, UniProt Q13188)
T7 construct: gene STK3

MAP3K15 = MAP3K15 (Homo sapiens, UniProt Q6ZN16)
ADCK3 = target: T8, ADCK3 (Homo sapiens, UniProt Q8NI60)
T8 construct: gene COQ8A

FGFR1 = FGFR1 (Homo sapiens, UniProt P11362)
DMPK = DMPK (Homo sapiens, UniProt Q09013)
[1] = read-out: Percent control / Acalabrutinib
[2] = read-out: Percent control / Ibrutinib
[3] = read-out: Percent control / Tirabrutinib
[4] = read-out: Percent control / Zanubrutinib

T1 sequence (Q5VT25 whole entry): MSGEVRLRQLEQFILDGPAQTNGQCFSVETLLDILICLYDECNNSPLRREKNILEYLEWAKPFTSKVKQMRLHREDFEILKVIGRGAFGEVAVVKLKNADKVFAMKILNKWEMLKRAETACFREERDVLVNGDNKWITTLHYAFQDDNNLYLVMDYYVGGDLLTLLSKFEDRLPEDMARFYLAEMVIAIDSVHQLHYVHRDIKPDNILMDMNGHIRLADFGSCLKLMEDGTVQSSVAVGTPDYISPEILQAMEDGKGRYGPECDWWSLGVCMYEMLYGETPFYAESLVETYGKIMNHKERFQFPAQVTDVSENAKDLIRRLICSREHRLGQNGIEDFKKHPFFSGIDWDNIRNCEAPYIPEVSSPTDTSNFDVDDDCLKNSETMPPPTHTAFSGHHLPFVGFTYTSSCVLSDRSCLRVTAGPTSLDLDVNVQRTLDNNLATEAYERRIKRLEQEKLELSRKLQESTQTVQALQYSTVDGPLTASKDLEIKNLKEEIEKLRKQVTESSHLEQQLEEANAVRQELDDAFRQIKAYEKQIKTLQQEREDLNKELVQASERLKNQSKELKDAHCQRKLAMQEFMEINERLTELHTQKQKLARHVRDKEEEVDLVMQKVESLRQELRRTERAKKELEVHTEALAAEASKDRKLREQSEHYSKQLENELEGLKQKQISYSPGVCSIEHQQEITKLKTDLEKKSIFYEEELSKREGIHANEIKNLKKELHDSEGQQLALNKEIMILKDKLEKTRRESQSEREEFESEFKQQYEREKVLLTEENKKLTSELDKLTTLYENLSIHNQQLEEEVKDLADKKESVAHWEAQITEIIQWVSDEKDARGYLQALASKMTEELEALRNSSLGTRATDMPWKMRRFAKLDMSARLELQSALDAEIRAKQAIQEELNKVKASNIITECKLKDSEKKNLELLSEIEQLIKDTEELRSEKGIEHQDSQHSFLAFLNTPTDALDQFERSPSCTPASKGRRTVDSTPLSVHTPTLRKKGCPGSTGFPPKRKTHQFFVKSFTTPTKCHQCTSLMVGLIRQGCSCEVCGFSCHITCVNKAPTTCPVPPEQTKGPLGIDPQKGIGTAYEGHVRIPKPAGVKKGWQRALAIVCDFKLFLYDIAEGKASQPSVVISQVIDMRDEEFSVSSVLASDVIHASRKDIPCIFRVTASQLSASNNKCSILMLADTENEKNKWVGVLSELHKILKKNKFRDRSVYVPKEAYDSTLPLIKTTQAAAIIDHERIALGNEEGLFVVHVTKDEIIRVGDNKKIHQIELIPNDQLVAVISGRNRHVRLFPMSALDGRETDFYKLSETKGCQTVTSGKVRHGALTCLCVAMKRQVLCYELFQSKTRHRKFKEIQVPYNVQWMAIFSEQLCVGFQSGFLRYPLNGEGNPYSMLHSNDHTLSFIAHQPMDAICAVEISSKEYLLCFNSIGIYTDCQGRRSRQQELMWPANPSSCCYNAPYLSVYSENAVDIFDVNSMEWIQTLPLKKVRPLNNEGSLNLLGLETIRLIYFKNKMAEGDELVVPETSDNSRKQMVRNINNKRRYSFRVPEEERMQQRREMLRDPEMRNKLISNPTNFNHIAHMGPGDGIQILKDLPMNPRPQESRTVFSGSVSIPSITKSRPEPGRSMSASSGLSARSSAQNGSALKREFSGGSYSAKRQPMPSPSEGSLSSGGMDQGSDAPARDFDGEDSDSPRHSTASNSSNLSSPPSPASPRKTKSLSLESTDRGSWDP
Sequence of DMPK (Q09013 whole entry): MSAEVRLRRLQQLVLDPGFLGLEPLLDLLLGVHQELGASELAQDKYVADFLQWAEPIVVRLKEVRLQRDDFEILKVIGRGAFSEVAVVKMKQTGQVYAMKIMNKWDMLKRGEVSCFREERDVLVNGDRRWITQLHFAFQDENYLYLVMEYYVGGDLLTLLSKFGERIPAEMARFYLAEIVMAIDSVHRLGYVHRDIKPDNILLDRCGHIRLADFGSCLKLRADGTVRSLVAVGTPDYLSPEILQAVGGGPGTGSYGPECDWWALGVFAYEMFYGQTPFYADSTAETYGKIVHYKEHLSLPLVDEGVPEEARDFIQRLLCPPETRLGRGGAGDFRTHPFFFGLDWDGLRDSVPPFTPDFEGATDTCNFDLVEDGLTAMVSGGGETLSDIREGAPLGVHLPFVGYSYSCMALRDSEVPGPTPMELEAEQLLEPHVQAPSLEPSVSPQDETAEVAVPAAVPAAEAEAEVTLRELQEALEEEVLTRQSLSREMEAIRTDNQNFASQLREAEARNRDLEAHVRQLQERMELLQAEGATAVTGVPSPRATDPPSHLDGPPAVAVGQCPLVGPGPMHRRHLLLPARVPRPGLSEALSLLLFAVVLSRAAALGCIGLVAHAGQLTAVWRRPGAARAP
Sequence of FGFR1 (P11362 whole entry): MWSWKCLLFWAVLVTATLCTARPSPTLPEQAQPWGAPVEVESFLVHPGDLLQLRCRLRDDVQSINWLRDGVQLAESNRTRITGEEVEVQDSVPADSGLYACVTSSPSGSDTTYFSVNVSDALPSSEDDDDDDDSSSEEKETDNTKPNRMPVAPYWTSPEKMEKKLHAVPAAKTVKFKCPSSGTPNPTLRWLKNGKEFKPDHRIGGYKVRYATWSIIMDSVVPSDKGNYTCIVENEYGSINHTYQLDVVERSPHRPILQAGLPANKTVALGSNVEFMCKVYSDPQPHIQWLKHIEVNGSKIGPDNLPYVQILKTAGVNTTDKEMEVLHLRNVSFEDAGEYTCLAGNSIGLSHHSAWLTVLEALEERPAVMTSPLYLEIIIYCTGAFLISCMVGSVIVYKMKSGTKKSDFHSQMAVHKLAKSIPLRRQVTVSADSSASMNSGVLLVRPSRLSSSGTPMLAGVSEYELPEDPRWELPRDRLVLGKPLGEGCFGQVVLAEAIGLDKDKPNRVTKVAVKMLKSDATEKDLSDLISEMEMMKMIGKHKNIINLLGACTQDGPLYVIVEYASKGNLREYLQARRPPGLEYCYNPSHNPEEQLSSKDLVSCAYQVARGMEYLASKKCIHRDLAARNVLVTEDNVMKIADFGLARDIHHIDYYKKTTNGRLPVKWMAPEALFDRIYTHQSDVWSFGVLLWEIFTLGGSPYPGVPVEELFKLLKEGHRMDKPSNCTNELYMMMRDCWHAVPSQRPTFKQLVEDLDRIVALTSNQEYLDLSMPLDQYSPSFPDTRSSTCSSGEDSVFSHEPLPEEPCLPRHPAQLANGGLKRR
Sequence of LIMK2 (P53671 whole entry): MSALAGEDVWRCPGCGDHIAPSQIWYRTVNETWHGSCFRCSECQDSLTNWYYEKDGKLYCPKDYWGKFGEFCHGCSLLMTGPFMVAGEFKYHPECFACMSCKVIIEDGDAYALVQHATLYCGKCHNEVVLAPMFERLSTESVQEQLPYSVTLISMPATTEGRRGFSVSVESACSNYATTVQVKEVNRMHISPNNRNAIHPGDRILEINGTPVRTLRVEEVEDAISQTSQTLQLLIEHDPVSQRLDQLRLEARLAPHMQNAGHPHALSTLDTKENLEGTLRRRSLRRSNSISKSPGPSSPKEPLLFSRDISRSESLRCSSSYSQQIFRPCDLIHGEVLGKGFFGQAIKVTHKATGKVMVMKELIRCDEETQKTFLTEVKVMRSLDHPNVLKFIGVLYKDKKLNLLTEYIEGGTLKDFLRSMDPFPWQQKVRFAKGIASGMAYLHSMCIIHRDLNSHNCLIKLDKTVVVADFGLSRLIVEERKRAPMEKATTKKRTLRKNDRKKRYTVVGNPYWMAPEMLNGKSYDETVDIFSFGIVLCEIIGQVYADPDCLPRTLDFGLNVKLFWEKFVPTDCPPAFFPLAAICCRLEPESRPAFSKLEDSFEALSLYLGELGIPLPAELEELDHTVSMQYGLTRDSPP
T7 sequence (Q13188 whole entry): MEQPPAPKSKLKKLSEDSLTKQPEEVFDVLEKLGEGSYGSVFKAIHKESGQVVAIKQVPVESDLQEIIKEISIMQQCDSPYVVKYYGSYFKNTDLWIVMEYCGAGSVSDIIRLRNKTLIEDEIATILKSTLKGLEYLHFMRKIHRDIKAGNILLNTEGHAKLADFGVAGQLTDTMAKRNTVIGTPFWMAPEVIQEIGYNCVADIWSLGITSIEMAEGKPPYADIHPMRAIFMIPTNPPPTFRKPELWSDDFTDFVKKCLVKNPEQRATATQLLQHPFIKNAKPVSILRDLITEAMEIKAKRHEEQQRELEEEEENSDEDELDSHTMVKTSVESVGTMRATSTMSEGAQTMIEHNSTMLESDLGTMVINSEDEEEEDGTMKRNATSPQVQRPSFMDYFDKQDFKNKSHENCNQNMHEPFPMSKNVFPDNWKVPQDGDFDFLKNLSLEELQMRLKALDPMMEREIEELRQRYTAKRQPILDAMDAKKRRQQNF
Sequence of CAMKK2 (Q96RR4 whole entry): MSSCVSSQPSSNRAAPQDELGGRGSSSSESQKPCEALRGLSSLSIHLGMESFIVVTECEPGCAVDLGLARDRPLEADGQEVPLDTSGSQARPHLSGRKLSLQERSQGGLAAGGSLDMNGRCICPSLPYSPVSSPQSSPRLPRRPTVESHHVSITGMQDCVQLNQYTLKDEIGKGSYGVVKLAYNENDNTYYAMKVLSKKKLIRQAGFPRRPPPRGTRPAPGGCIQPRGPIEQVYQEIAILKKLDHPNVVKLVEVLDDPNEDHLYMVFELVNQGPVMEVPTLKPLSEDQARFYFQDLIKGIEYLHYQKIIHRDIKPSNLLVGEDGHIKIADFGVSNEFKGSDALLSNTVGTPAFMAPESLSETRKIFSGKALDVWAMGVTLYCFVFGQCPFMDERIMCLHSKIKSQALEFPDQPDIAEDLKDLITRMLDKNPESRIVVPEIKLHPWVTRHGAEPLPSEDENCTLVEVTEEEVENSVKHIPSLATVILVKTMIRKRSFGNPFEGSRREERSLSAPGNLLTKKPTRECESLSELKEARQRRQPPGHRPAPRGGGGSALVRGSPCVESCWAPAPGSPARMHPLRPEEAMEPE

## CC#CC(=O)N1CCC[C@H]1c1nc(-c2ccc(C(=O)Nc3ccccn3)cc2)c2c(N)nccn12 [Acalabrutinib]
MRCKA; [1]
  remaining binding at 0.3 µM: 96%
QSK; [1]
  remaining binding at 0.3 µM: 90%
NEK9; [1]
  remaining binding at 0.3 µM: 82%
AMPK-alpha2; [1]
  remaining binding at 0.3 µM: 96%
FLT3(ITD); [1]
  remaining binding at 0.3 µM: 85%
SGK3; [1]
  remaining binding at 0.3 µM: 94%
MYLK; [1]
  remaining binding at 0.3 µM: 82%
PCTK3; [1]
  remaining binding at 0.3 µM: 90%
KIT(L576P); [1]
  remaining binding at 0.3 µM: 86%
CAMKK2; [1]
  remaining binding at 0.3 µM: 97%
LIMK2; [1]
  remaining binding at 0.3 µM: 96%
TSSK1B; [1]
  remaining binding at 0.3 µM: 93%
PAK4; [1]
  remaining binding at 0.3 µM: 93%
PAK3; [1]
  remaining binding at 0.3 µM: 77%
JNK2; [1]
  remaining binding at 0.3 µM: 95%
PIK3CD; [1]
  remaining binding at 0.3 µM: 88%

## C=CC(=O)N1CCC[C@@H](n2nc(-c3ccc(Oc4ccccc4)cc3)c3c(N)ncnc32)C1 [Ibrutinib]
FLT3(D835H); [2]
  remaining binding at 0.3 µM: 25%
MST4; [2]
  remaining binding at 0.3 µM: 89%
MST2; [2]
  remaining binding at 0.3 µM: 85%
NEK9; [2]
  remaining binding at 0.3 µM: 94%
AMPK-alpha2; [2]
  remaining binding at 0.3 µM: 97%
MAP3K15; [2]
  remaining binding at 0.3 µM: 96%
KIT(L576P); [2]
  remaining binding at 0.3 µM: 72%
ADCK3; [2]
  remaining binding at 0.3 µM: 98%
FGFR1; [2]
  remaining binding at 0.3 µM: 66%

## CC#CC(=O)N1CC[C@@H](n2c(=O)n(-c3ccc(Oc4ccccc4)cc3)c3c(N)ncnc32)C1 [Tirabrutinib]
FLT3(D835H); [3]
  remaining binding at 0.3 µM: 95%
DMPK; [3]
  remaining binding at 0.3 µM: 93%
FLT3(ITD); [3]
  remaining binding at 0.3 µM: 82%
ADCK3; [3]
  remaining binding at 0.3 µM: 95%

## C=CC(=O)N1CCC([C@@H]2CCNc3c(C(N)=O)c(-c4ccc(Oc5ccccc5)cc4)nn32)CC1 [Zanubrutinib]
MRCKA; [4]
  remaining binding at 0.3 µM: 100%
QSK; [4]
  remaining binding at 0.3 µM: 45%
MST4; [4]
  remaining binding at 0.3 µM: 63%
MST2; [4]
  remaining binding at 0.3 µM: 100%
DMPK; [4]
  remaining binding at 0.3 µM: 90%
SGK3; [4]
  remaining binding at 0.3 µM: 74%
MYLK; [4]
  remaining binding at 0.3 µM: 82%
PCTK3; [4]
  remaining binding at 0.3 µM: 92%
MAP3K15; [4]
  remaining binding at 0.3 µM: 54%
CAMKK2; [4]
  remaining binding at 0.3 µM: 87%
LIMK2; [4]
  remaining binding at 0.3 µM: 92%
TSSK1B; [4]
  remaining binding at 0.3 µM: 100%
PAK4; [4]
  remaining binding at 0.3 µM: 85%
PAK3; [4]
  remaining binding at 0.3 µM: 83%
JNK2; [4]
  remaining binding at 0.3 µM: 100%
FGFR1; [4]
  remaining binding at 0.3 µM: 68%
PIK3CD; [4]
  remaining binding at 0.3 µM: 37%

Source: paper PMC10004634 (PLOS ONE, 2023)
